Like-named read-outs stand apart in the source and are kept apart here.
What was measured:
[1] = Fluorescence of ester cleavage product / self-quenching of fluorescer; format: physicochemical
Source text: However, the chemiluminescent decomposition of this dioxetane can be conveniently triggered at room temperature by removal of the silyl-protecting with fluoride ion to generate the unstable, aryloxide form which cleaves to yield intense blue light.
In general the molar ratio of the dioxetane to fluorescent compound is between about 1,000 to 1 and 1 to 1 whether in solution or in a solid composition.

firefly luciferase = settings: cationic surfactant; cited from earlier work
[2] = Base-triggered chemiluminescence of dioxetanes 2a/2b in DMSO, water, CTAB micelles and micelles with fluorescent co-surfactant
Source text: The chemiluminescence quantum yield (.PHI.CL) for the decomposition of dioxetanes is defined as the ratio of einsteins of chemiluminescence emitted to moles of dioxetane decomposed. Sufficient energy is released during the reaction from the reaction enthalpy (ΔHR) plus the Arrhenius activation energy (Ea) to populate the singlet excited state of one of the carbonyl cleavage products. Therefore, the maximum quantum yield is 1.0. Another parameter of interest is the chemiexcitation quantum yield (.PHI.CE) which is defined as the ratio of excited states formed to dioxetane decomposed. The chemiexcitation quantum yield is related to the chemiluminescence quantum yield via the fluorescence quantum yield of the dioxetane cleavage (.PHI.F) through the equation: .phi.CL =.phi.CE X .phi.F.
The same procedure as those employed in the measurement of the decay kinetics was used for the determination of chemiluminescence quantum yields with the following modifications. An accurately measured aliquot of a dioxetane stock solution of known concentration was added to 3 mL of the pre-thermostatted organic solvent or aqueous buffer. The reaction was then triggered by adding the appropriate chemical reagent or enzyme. The total light intensity was integrated by a photon-counting luminometer using an RCA A-31034A gallium-arsenide PMT cooled to -78° C.
Spectra of the chemiluminescence from chemically or enzymatcally triggered dioxetanes were obtained by conducting the reaction in a 1-cm square quartz cuvette in the sample compartment of a Spex Fluorolog spectrofluorometer at ambient temperature. Correction for the decay of the chemiluminescence intensity during the wavelength scan was made by accumulating the spectrum in a ratio mode so that the observed spectrum was divided by the signal from an auxiliary detector (EMI 9781B) which measures the total signal as a function of time. The monochromator bandpass was typically 18 nm. For weakly emitting samples, several identical scans were performed and added together to improve the signal-to-noise ratio.
1. Triggering the Chemiluminescence of Hydroxy-Substituted Dioxetane 2a with Base.
2. […] Cationic surfactants such as cetyltrimethylammonium bromide (CTAB) can be used to increase rates for chemical triggering of chemiluminescence from appropriately substituted dioxetanes in aqueous solution. […] The dioxetane is solubilized in the micelles formed by the surfactant and NaOH is added to initiate the chemiluminescence. […] Typically, the experiments were carried out with [2b]=9.1×10^-5 M, [CTAB]=2×10^-3 M, and [OH^- ]=9.1×10^-5 M at 37° C.
Similar experiments were conducted with the benzothiazamide surfactant 4. […] Enzymatic Triggering of Phosphate-Substituted Dioxetane 2c.

[3] = format: physicochemical
Method: Rates for thermal decomposition of the stable dioxetanes were monitored by the decay of chemiluminescence of aerated solutions. A cylindrical Pyrex vial equipped with magnetic stir bar was filled with 3-4 mL of the reaction solvent, sealed with a Teflon-lined screw cap and placed in the thermostatted sample block of the chemiluminescence-measuring luminometer. Temperature control was provided by an external circulating water bath. Appropriate values for the instrument gain and optical slit size were selected. […]. The vial was sealed with a Teflon-lined screw cap to prevent evaporation when high temperatures were used. Measurement of the signal was begun by opening the shutter. The chemiluminescent decay was generally recorded for at least three half-lives. Calculation of the first-order rate constant (k) from the In (Intensity) vs. time data was performed by a computer program utilizing a standard least-squares treatment. The correlation coefficient (r) was typically at least 0.999 and k varied less than 5% between replicate samples.
Activation parameters for decomposition of the dioxetanes were calculated from plots of In k vs. 1/T (Arrhenius eq.) or In k/t vs. 1/T (Eyring eq.) by a standard least-squares linear regression analysis.
Activation Energies for Thermal Decomposition of Dioxetanes

Urease = assay: Triggering of hydroxy-substituted dioxetane 2a with urease in fluorescent micelles; format: biochemical; settings: 10 μL of 3×10^-3 M 2a, CTAB and 3, room temperature
Method: 5. Enzymatic Triggering of Hydroxy-Substituted Dioxetane 2a with Urease in the Prescence of Fluorescent Micelles. A solution was prepared using 160 mg of CTAB and 12.4 mg of fluorescein surfactant 3 in 200 mL of distilled water. A urea solution was made by dissolving 200 mg of urea in 100 mL of distilled water with EDTA added to give a final concentration of 0.4 mM. The substrate solution for the urease experiments was obtained by mixing 10mL of each stock solution.
Experiments were carried out with urease (Sigma) by incubation at room temperature for periods of 0.5 to 2 hours. […] The intensity of the luminescence provided a measure of the concentration of urease.

[4] = format: physicochemical; remark: listed apart in the source
[5] = system: Alkaline Phosphatase from Bovine Intestinal Mucosa; assay: Alkaline phosphatase triggering of xanthenone-derived phosphate dioxetane; format: biochemical
Method: Triggering experiments were conducted using alkaline phosphatase from bovine intestinal mucosa suspension of 5.3 mg of protein (1100 units/mg protein) per mL in 3.2 M (NH4)2 SO4 ]and the phosphate-protected dioxetane at pH 10.3 in 0.75 M 2-amino-2-methyl- 1-propanol buffer. […]. […] The rate of decay of the emission is a function of enzyme concentration while the total light emission is independent of the enzyme concentration because of turnover of the enzyme. The chemiluminescence spectrum for the phosphatase-catalyzed decomposition was obtained at room temperature in the buffer solution.

[6] = thermal decomposition in xylene

## COC(=O)c1cccc(O)c1 [methyl 3-hydroxylbenzoate]
[1]; ester cleavage product under conditions of fluoride triggering
  fluorescence quantum yield (.PHI.^F): 0.44

## CCCCCCCCCCCCCCCC[N+](C)(C)C.[Br-] [CTAB, cetyltrimethylammonium bromide]
Firefly luciferase
  inhibition of the catalytic activity of the luciferase: complete inhibition

## COC1(c2cccc(O)c2)OOC12C1CC3CC(C1)CC2C3 (stereo not drawn) [2a, 4-(3-Hydroxyphenyl)-4-methoxyspiro[1,2-dioxetane-3,2'-adamantane]]
[2]; 10^-4 M, excess tetra-n-butylammonium hydroxide, DMSO, room temperature
  period of chemiluminescence decay: several minutes
[2]; base in DMSO
  chemiluminescence quantum yield (.PHI.CL): 0.25
[2]; base in water
  light yield (chemiluminescence quantum yield): 8.9×10^-6
[2]; tetra-n-butylammonium hydroxide in DMSO, room temperature
  emission maximum for the chemiluminescence: 470 nm
[3]; in xylene, 25° C., read-out: t1/2 at 25° C. (converted)
  half-life: 1500 days
[3]; [6]
  Ea: 28.3
  Log A: 12.5
[3]; thermal decomposition in xylene, 25° C.
  k(sec^-1) at 25° C.: 5.38e-09 s⁻¹
Urease
  luminescence after incubation with urease: produced chemiluminescence

## CCCCCCCCCCCCCC(=O)Nc1ccc2c(c1)C(=O)OC21c2ccc(O)cc2Oc2cc(O)ccc21 [compound 3]
[1]; no CTAB
  self-quenching when used alone in solution: quenches itself when used alone in solution

## O=P(O)(O)Oc1ccc2c(c1)Oc1ccccc1C21OOC12C1CC3CC(C1)CC2C3 (stereo not drawn)
[4]; 25° C.
  half-life: 4380 days
[4]; aqueous buffers
  spontaneous decomposition in aqueous buffers: very slow spontaneous decomposition
[4]; thermal
  activation energy: 30.7 kcal/mol
[5]; 4.2×10^-6 M dioxetane, 1.8 μg/mL protein, pH 10.3, 37° C.
  period of chemiluminescence decay: 3 min
[5]; pH 10.3, 37° C.
  total light emission vs dioxetane concentration: linearly dependent on the dioxetane concentration
[5]; pH 10.3 buffer, over 3 min, 37° C.
  background luminescence from non-enzymatic hydrolysis, of enzymatic: 0.2%

— patent publication US4959182A, “Method and compositions providing enhanced chemiluminescence from 1,2-dioxetanes” (priority 1989, dated 1990)
